Tests used:
[1] = tested on: gastric mucosa; assay: Example F7: gastric tolerability after oral administration in NEM-treated rats; type: in vivo; settings: rats all receiving NEM, p.o., 0.02 mmoles/Kg of each component
Experimental: Example F1 was repeated with four groups of rats (each group of ten animals), all of them receiving NEM, and orally administered as it follows: • a. control group: the vehicle formed of an aqueous suspension 1% w/v of carboxymethylcellulose, • b. one group (group b—comparative) administered at the same time with 5 mg/Kg (0.02 mmoles/Kg) of flurbiprofen+2.7 mg/Kg (0.02 mmoles/Kg) of 4-thiazolidin carboxilic acid in the same above vehicle, • c. one group (group c—comparative) administered at the same time with 7.4 mg/Kg (0.02 mmoles/Kg) of 4-(nitroxy)butyl ester of flurbiprofen, synthetized according to the method described in WO 94/12463, +2.7 mg/Kg (0.02 mmoles/Kg) of 4-thiazolidin carboxilic in the same above vehicle, • d. one group (group d) administered with 9.8 mg/Kg (0.02 mmoles/Kg) of 3-[2-fluoro-α-methyl-(1,1′-biphenyl)-4-acetyl]thiazolidin-4-carboxylic acid 4-(nitroxy)butyl ester synthetized as from Ex. 1(indicated as NO-Flurbiprofen in Table VII), in the above same vehicle.

[2] = Test 5: inhibition of radical production from FeII (deoxyribose degradation); settings: 10^-4 M methanolic solution, 37° C. one hour, absorbance 532 nm
Experimental: Test 5 is a […] test wherein 0.1 ml aliquots of 10^−4 M methanolic solutions of the tested products are added to test tubes containing a solution formed by 0.2 ml of 2 mM desoxyribose, 0.4 ml of phosphate buffer pH 7.4 100 mM and 0.1 ml of 1 mM Fe^II(NH4)2(SO4)2 in 2 mM HCl. The test tubes are then maintained at 37° C. for one hour. Then in each test tube 0.5 ml of a 2.8% solution in water of trichloroacetic acid and 0.5 ml of an aqueous 0.1 M solution of thiobarbituric acid are added, in the order. A reference blank is formed by adding to a test tube containing only the above described aqueous solution of reactants 0.1 ml of methanol. The test tubes are closed and heated in an oil bath at 100° C. for 15 minutes. A pink coloration is developed the intensity of which is proportional to the quantity of desoxyribose undergone to radical oxidative degradation. The solutions are cooled at room temperature and their absorbances are read at 532 nm against the blank. The inhibition induced by the precursor of B or B1 or C=-Tc-Y—H in the confront of radical production by Fe^II is determined by means of the following formula: (1−As/Ac)×100 wherein As and Ac are respectively the absorbance values of the solution containing the tested compound+the iron salt and that of the solution containing only the iron salt, the compound meets test 5 when the inhibition percentage of radical production as above defined from the precursor of B or B1 or C=-Tc-Y—H is higher than or equal to 50%. […]
0.1 ml aliquots of 10^−4 M methanolic solutions of 4-thiazolidin carboxylic acid and 2-oxo-4-thiazolidin carboxylic acid are added to test tubes containing an aqueous solution formed by mixing 0.2 ml of 2 mM deoxyribose, 0.4 ml of buffer phosphate pH 7.4 100 mM and 0.1 ml of 1 mM Fe^II(NH4)2(SO4)2 in 2 mM HCl. […] A pink coloration develops the intensity of which is proportional to the quantity of deoxyribose undergone to radical oxidative degradation. The solutions are cooled at room temperature and their absorbances at 532 nm are read against the blank. […]

[3] = Test 4: inhibition of radical production from DPPH; settings: tested substance 100 μM in methanol, 30 minutes, absorbance 517 nm
Experimental: Test 4 is a colorimetric test which must not be satisfied by the precursor of B or B1 (precursor of the X2 or X2a of the formulas (I) and (II) respectively). The inhibition of the production of radicals from DPPH (2,2-diphenyl-1-picryl-hydrazyl) is described in M. S. Nenseter et Al., Atheroscler. Thromb. 15, 1338-1344, 1995. 100 μM solutions in methanol of the tested substances are prepared, and an aliquot of each of said solutions is added to a DPPH solution in methanol 0.1 M. After having stored the solutions at room temperature away from light for 30 minutes, their absorbances are read at the wave length of 517 nm, together with that of the corresponding DPPH solution at the same concentration. The absorbance decrease with respect to that of the solution of DPPH at the same concentration of the test solutions is determined. The effectiveness of the tested compound in inhibiting formation of radicals by DPPH is expressed by the following formula: (1−AS/AC)×100 wherein AS and AC are respectively the absorbance values of the solution containing the test compound together with DPPH and of the solution containing only DPPH. Test 4 is satisfied when the inhibition is equal or greater than 50%.
Test 4: Inhibition of the Radical Production from DPPH of Some Substances Used as Precursors of B or B1 (Ref. Formulas I and II of the Invention)
The method is based on a calorimetric test in which DPPH (2,2-diphenyl-1-picryl-hydrazyl) is used as the compound-forming radicals (M. S. Nenseter et Al., Atheroscler. Thromb. 15, 1338-1344, 1995).
Solutions in methanol of the tested substances at a final concentration 100 μM are initially prepared. 0.1 ml of each of these solutions are added to aliquots of 1 ml of a methanol solution 0.1 M of DPPH and then the final volume is brought to 1.5 ml. After having stored the solutions at room temperature away from light for 30 minutes, the absorbance at the wave length of 517 nm is read. It is determined the absorbance decrease with respect to the absorbance of a solution containing the same concentration of DPPH.
The efficacy of the test compound to inhibit the production of radicals, or antiradical activity, is expressed by the following formula: (1−AS/AC)×100 wherein AS and AC are, respectively, the absorbance values of the solution containing the test compound together+DPPH and of the solution containing only DPPH.

[4] = tested on: gastrointestinal mucosa; assay: Test 1 (NEM): gastric tolerability of precursor drugs in rats treated or not with N-ethylmaleimide; settings: rats, sacrifice after 24 hours
Experimental: The animals (rats) are distributed in the following groups (no. 10 animals for group):
• 1° group: treatment: only carrier (aqueous suspension 1% w/v of carboxymethylcellulose, dose: 5 ml/Kg when the drug is administered by os, or a physiologic solution when parenterally administered, i.e. by subcutaneous, intraperitoneal, intravenous or intramuscular route), • 2° group: treatment: carrier as above defined+NEM, B) Groups Treated with the Drug: • group I: treatment: carrier+drug, • group II: treatment: carrier+drug+NEM.
The administration routes are those known for the drug, and can be the oral or subcutaneous, intraperitoneal, intravenous or intramuscular route.
(§1) The animals are sacrificed after 24 hours and then one proceeds to the evaluation of the damage to the gastrointestinal mucosa.
Test 1—Experimental Model in Vivo with N-ethylmaleimide (NEM): Study of the Gastric Tolerability of Some Drugs Screened as Precursors of the Compounds of the Invention.
The animals (rats, weight about 200 g) are distributed in the following groups (No. 10 animals for group):
• 1° group: treatment: only carrier (aqueous suspension 1% w/v of carboxymethylcellulose, dose: 5 ml/Kg when the drug is administered by os, physiologic solution when by parenteral route), • 2° group: treatment: carrier+NEM B) Groups Administered with Each Drug: • group I: treatment: carrier+drug, • group II: treatment: carrier+drug+NEM.
The drug is administered one hour later, in suspension in the carrier. Animals are sacrificed after 24 hours and evaluation of the damage to the gastrointestinal mucosa is made by counting the number of rats, inside each group, with lesions to the stomach at a visual inspection. The total number of said rats is then divided by the total number of rats of the group and multiplied by 100.

[5] = tested on: rats; assay: in vivo; settings: rats not treated with NEM, single dose, s.c.
Experimental: as §1

[6] = tested on: gastrointestinal mucosa, GPT, blood pressure; settings: rat, in vivo
Experimental: The endothelial dysfunction is evaluated by determining the damage to the gastrointestinal mucosa, the hepatic damage and blood hypertension induced by administration of L-NAME.
The animals (rats) are divided in groups as herein below shown. The group receiving L-NAME is treated for 4 weeks with said compound dissolved at a concentration of 400 mg/litre in drinking water. The following groups are constituted (No. 10 animals for group):
(§2) • 1° group: only carrier (aqueous suspension 1% w/v of carboxymethylcellulose, dose: 5 ml/Kg when the drug is administered by os, phisiologic solution when administered parenterally), • 2° group: carrier+L-NAME, B) Groups Administered with the Drug: • 3° group: carrier+drug, • 4° group: carrier+drug+L-NAME.
The administration routes are those known for the drug, and can be the oral or subcutaneous, intraperiteneal, intravenous or intramuscular route. […] The drug is administered once a day for 4 weeks.
At the end of the four weeks treatment access to water is prevented and after 24 hours the animals are sacrificed.
One hour before the sacrifice blood-pressure is determined, and a blood pressure increase is taken as an evaluation of the damage to vascular endothelium. […] The hepatic damage is determined by evaluation of the glutamic-pyruvic transaminase (GPT increase) after sacrifice.
Test 3-Experimental in Vivo Model with N^w-nitro-L-arginine-methyl ester (L-NAME): Gastric Tolerability (Gastrointestinal Damage Incidence), Hepatic (GPT Dosage, Glutamic-pyruvic Transaminase) and Cardiovascular (Blood Pressure) Tolerability of Some Drugs Screened as Precursors of the Compounds of the Invention.
The endothelial dysfunction is evaluated by determining the damage induced by L-NAME administration to the gastrointestinal mucosa, the hepatic damage (GPT increase), and the vascular endothelium or cardiovascular damage as blood hypertension.
The animals (rats, average weight 200 g) are divided in groups as herein below described. The group receiving L-NAME is treated for 4 weeks with said compound dissolved at the concentration of 400 mg/litre in drinking water. The following groups (No. 10 animals for group) are constituted:
as §2, with “group: treatment:” for “group:”, “physiologic” for “phisiologic”, “by parenteral route),” for “administered parenterally),”, “Treated” for “Administered”
Each drug is administered once a day for 4 weeks.
At the end of the four weeks access to water is prevented and after 24 hours the animals are sacrificed.
One hour before the sacrifice blood pressure is determined and a blood pressure increase is taken as an indication of a damage being occurred to vascular endothelium.
The hepatic damage is determined by evaluation after the sacrifice of the glutamic-pyruvic transaminase (GPT increase).
The % gastric lesions have been determined as in Test 1.

With `CC(C(=O)N1CSCC1C(=O)OCCCCO[N+](=O)[O-])c1ccc(-c2ccccc2)c(F)c1` (stereo not drawn) [Example 1, 3-[2-fluoro-α-methyl-(1,1′-biphenyl)-4-acetyl]thiazolidin-4-carboxylic acid 4-(nitroxy)butyl ester] as the compound, how does the Gastropathy % incidence [1] read?
Its Gastropathy % incidence is 0%.

With `O=C(O)C1CSCN1` (stereo not shown) [4-thiazolidin carboxylic acid] as the compound, how does the “% Radical Inhibition from Fe^II” value [2] read?
The value was 100%.

What about the “% inhibition radical production from DPPH” value [3] of the same compound?
Its value is 0%.

And the “% inhibition radical production from DPPH” value ([3]; listed as 4-Thiazolidincarboxylic acid)?
Its value is “does not inhibit at any extent”.

Which “% Radical Inhibition from Fe^II” value [2] does the source give for `N[C@@H](Cc1c[nH]cn1)C(=O)O` [histidine] here?
The value was 90%.

And the “% inhibition radical production from DPPH” value [3]?
Its value is 0%.

With `O=C(O)CCC(=O)O` [succinic acid] as the compound, how does the “% Radical Inhibition from Fe^II” value [2] read?
Its value is 90%.

And the “% inhibition radical production from DPPH” value [3]?
Its value is 0%.

Which results are given for `CCCCC(C)(O)C/C=C/[C@H]1[C@H](O)CC(=O)[C@@H]1CCCCCCC(=O)OC` (mixture of isomers) [Misoprostol]?
Gastro-enteropathy (% incidence) with NEM ([4]; NEM 25 mg/kg s.c. one hour before drug at maximum tolerated dose): 0%; Gastro-enteropathy (% incidence) without NEM ([4]; single maximum tolerated dose, without NEM): 0%; maximum tolerated dose (dose (mg/Kg)/admin. route) [5]: 0.5/s.c. mg/Kg; GPT % without L-NAME [6]: 100%; Gastroenteropathy % without L-NAME ([6]; 4 weeks): 0%
